Laboratory results from patent publication US20130171198A1, “ANTIMICROBIAL AND VULNERARY ACTION PHARMACEUTICAL COMPOSITION FOR EXTERNAL APPLICATION AND ITS PRODUCTION PROCESS” (priority 2010, published 2013).

Key:
[1] = Fosfomycin sorption by BHSiO2 particles; format: physicochemical
Excerpt: Fosfomycin sorption rate by BHSiO2 particles was 20-25%.

[2] = Incision model, rabbits, external application of solution/suspension; format: in vivo; settings: for Incision length (cm) Me: 2.5% fosfomycin solution or 5% composition suspension
Method: (§1) The experiments were conducted using adult rabbits “Chinchilla” (males, weight 3-3.5 kg) and random bred guiney pigs (males, weight 0.8-0.9 kg) according to the “Regulations for test animals use” (USSR Ministry of health order supplement #755 from 12.08. 1977). There have been made several incisions with a sterile scalpel on the left and right side of the depilated coupling area (1.5% novocain solution was used for local anesthesia); incision 2 cm long and 0.8 cm deep with muscular layer seizure for guiney pigs and 2 cm long and 1 cm deep with muscular layer seizure for rabbits. Each day in 8 days period (starting with the very first day) the wounds of the animals control group was bathed with a sterile normal saline solution, were covered with a sterile tissue fixed with a plaster. The wounds of the test group animals were bathed with a sterile saline solution, then dried and then dusted with fosfomycin sterile powder uniform layer (2-3 mm) or a same layer pharmaceutical composition (for guiney pigs), the wounds of the test rabbits were irrigated with a sterile 2.5% fosfomycin solution or sterile 5% pharmaceutical composition suspension, after that they were dried and covered with a sterile tissue fixed with a plaster. The regenerative process dynamics was monitored during 9 days. The medics measured the length of the wound open area and made a visual evaluation of wound edges and walls, the presence and character of the exudates, necrosis presence. The test results can be seen in Tables No 2 and No 3. The statistical data processing has been made with a program Statistica 6.0. The experimental data are presented as median (Me), Low and High quartile (LQ-HQ), the difference authenticity has been calculated using Student t-criterion with p<0.05 values.

[3] = Incision model, guiney pigs, external application of powder; format: in vivo; settings: for Incision length (cm) Me: powder form, external application daily
Method: as §1

[4] = system: infected S. aureus thermal burn; assay: Infected thermal burn model, guiney pigs; format: in vivo; settings: for Necrosis area (cm^2) / Thermal burn area (cm^2): 2.5% solution or 5% suspension
Method: The experiments were conducted using adult rabbits “Chinchilla” (males, weight 3-3.5 kg) and random bred guiney pigs (males, weight 0.8-0.9 kg) according to the “Regulations for test animals use” (USSR Ministry of health order supplement #755 from 12.08. 1977). There have been made several skin integument burnings with a warmed up on the burner flame metallic applicator on the left and right side of the depilated coupling area (1.5% novocain solution was used for local anesthesia) by attaching it to the skin and holding for 40 seconds. In the center of the ambustial area there has been intracutaneously inserted Staphylococcus aureus (ATCC No 25923 F-49) daily suspension with a 0.1 ml volume in a 10^10 CFU/ml dosage. Each day in 13 days period (starting with the very first day) the burnings of the animals control group was bathed with a sterile normal saline solution, dried and covered with a sterile tissue fixed with a plaster. The burnings of the test animals were irrigated with a sterile 2.5% fosfomycin solution or sterile 5% pharmaceutical composition suspension, after that they were dried and covered with a sterile tissue fixed with a plaster. The burnings condition dynamics was monitored during 14 days. The medics measured the burning wound surface and necrosis area in the center of the burning wound. You may see the results in the table No 4. The statistical data processing has been made with a program Statistica 6.0. The experimental data are presented as median (Me), Low and High quartile (LQ-HQ), the difference authenticity has been calculated using Student t-criterion with p<0.05 values.

[5] = 2.5% solution / 5% water suspension

In the case of `C[C@@H]1O[C@@H]1P(=O)(O)O` [Fosfomycin, fosfomycin], the “Fosfomycin sorption rate by BHSiO2 particles” value [1] is reported as 20-25%, the “Incision length (cm) Me” value ([2]; Day 2) is reported as 0.5 cm and the “Incision length (cm) Me” value ([2]; Day 6) is reported as 0.4 cm. The “Incision length (cm) Me” value ([2]; Day 9) was 0.25 cm, the “Incisions regeneration process versus control group” value [2, 5] was “authentically increase incisions regeneration process comparing to the control group” and the “Incision length (cm) Me” value ([3]; Day 2) was 0.9 cm. For the same compound, the “Incision length (cm) Me” value ([3]; Day 6) was 0.5 cm, the “Incision length (cm) Me” value ([3]; Day 9) was 0.3 cm and the “Incisions regeneration process versus control group” value ([3]; powder forms) was “authentically increase incisions regeneration process comparing to the control group”. The “Infected S. aureus thermal burn regeneration process versus control group” value [4, 5] was “authentically increase infected S. aureus thermal burn regeneration process comparing to the control group”, the “Necrosis area (cm^2)” value ([4]; Day 2) was 0.0 cm^2 and the “Thermal burn area (cm^2)” value ([4]; Day 2) was 1.2 cm^2. For the same compound, the “Necrosis area (cm^2)” value ([4]; Day 6) was 0.3 cm^2, the “Thermal burn area (cm^2)” value ([4]; Day 6) was 0.8 cm^2 and the “Necrosis area (cm^2)” value ([4]; Day 9) was 0.25 cm^2. For the same compound, the “Thermal burn area (cm^2)” value ([4]; Day 9) was 0.7 cm^2, the “Necrosis area (cm^2)” value ([4]; Day 14) was 0.2 cm^2 and the “Thermal burn area (cm^2)” value ([4]; Day 14) was 0.4 cm^2.
